From PubChem BioAssay (NCI)
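Values below derive from 48-hour exposures of cells grown in 96-well plates, with endpoints linearly interpolated between the two concentrations bracketing the appropriate inhibition level. Abbreviation: GI50, concentration required for 50% inhibition of growth. TGI marks complete inhibition of growth.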

What was measured:
Assay in all cases: DTP human tumour cell line panel, 48 h
NCI-H522 lung = test system: NCI-H522 lung
A498 renal = test system: A498 renal
SK-MEL-5 melanoma = test system: SK-MEL-5 melanoma
HT29 colon = test system: HT29 colon
EKVX NSCLC = test system: EKVX NSCLC
K-562 leukemia = test system: K-562 leukemia
SF-295 CNS = test system: SF-295 CNS
RPMI-8226 leukemia = test system: RPMI-8226 leukemia
HS 578T breast = test system: HS 578T breast
OVCAR-3 ovarian = test system: OVCAR-3 ovarian

SMILES | TGI (NCI-H522 lung) | TGI (A498 renal) | TGI (SK-MEL-5 melanoma) | TGI (HT29 colon) | TGI (EKVX NSCLC) | TGI (K-562 leukemia) | TGI (SF-295 CNS) | TGI (RPMI-8226 leukemia) | TGI (HS 578T breast) | TGI (OVCAR-3 ovarian) | GI50 (SK-MEL-5 melanoma) | GI50 (HT29 colon) | GI50 (EKVX NSCLC) | GI50 (OVCAR-3 ovarian) | GI50 (SF-295 CNS) | GI50 (NCI-H522 lung) | GI50 (A498 renal) | GI50 (K-562 leukemia) | GI50 (RPMI-8226 leukemia) | GI50 (HS 578T breast)
CC1CC(=O)N(N(C)C)C2(C#N)C(=O)N=C(N)C12C#N (stereo not given) | > 100 µM | > 100 µM | > 100 µM | > 100 µM | > 100 µM | 59.6 µM | > 100 µM | 99.1 µM | > 100 µM |  |  |  |  |  |  |  |  |  |  | 
CC(C)(C)OC(=O)Cn1ncn(NC(=O)Cc2ccccc2)c1=S | > 10 µM | > 10 µM | > 10 µM | > 10 µM | > 10 µM | > 10 µM | > 10 µM |  | > 10 µM | > 10 µM |  |  |  |  |  |  |  |  |  | 
N#C[S-].[La+3].c1ccc(-c2ccccn2)nc1.c1ccc(-c2ccccn2)nc1.c1ccc(-c2ccccn2)nc1 |  |  | 34.8 µM | > 100 µM | > 100 µM |  | 71.3 µM |  |  | > 100 µM | 10.4 µM | 18.7 µM | 22 µM | 64.6 µM | 12.3 µM |  |  |  |  | 
[CH3][Sn]([CH3])([CH3])[S]C(=S)N1CCOCC1 | 0.42 µM | 73.8 µM | 2.62 µM | 1.5 µM | > 100 µM | 5.84 µM | 13.2 µM | 2.22 µM |  | 1.32 µM | 0.881 µM | 0.28 µM | 4.96 µM | 0.331 µM | 3.51 µM | 0.102 µM | 15.3 µM | 0.36 µM | 0.362 µM | 
CC(=O)Oc1ccc2cc(Oc3cc(Cl)c(Cl)cc3Cl)c(=O)oc2c1 | 34.6 µM | 46.7 µM | 24.1 µM | 30.5 µM | 71.9 µM | 25.9 µM | 45.7 µM |  | 65 µM | 31.6 µM |  |  |  |  |  |  |  |  |  | 
CCCCCCCCCCCC1N=C(N)N=C(N)N1c1cccc(Br)c1 (stereo not given) | 2.95 µM | 11.3 µM |  | 1.71 µM | 2.44 µM |  | 19.4 µM | 4.21 µM | 4.77 µM |  |  | 0.412 µM | 1.05 µM |  | 1.16 µM | 1.51 µM | 2.65 µM |  | 1.68 µM | 2.08 µM
CN(C)C(=O)C(F)(F)C(c1ccccc1Br)C1C(=O)N(C)C(=O)N(C)C1=O (stereo not given) |  | > 100 µM | > 100 µM |  | > 100 µM | > 100 µM | > 100 µM | > 100 µM |  | > 100 µM |  |  |  |  |  |  |  |  |  | 
NC(Cc1ccccc1)C(=O)OCN1C(=O)C2C3C=CC(C2C1=O)C1C(=O)N(COC(=O)C(N)Cc2ccccc2)C(=O)C31 (stereo not given) | > 100 µM |  | > 100 µM | 39.7 µM | > 100 µM | 74.6 µM | > 100 µM | 48 µM | > 100 µM | > 100 µM |  |  |  |  |  |  |  |  |  | 
COc1cc2c(c(OC)c1OC)C(=O)c1c(O)cc(C)c(OC)c1C2=O | > 100 µM | > 100 µM | > 100 µM | > 100 µM | > 100 µM |  | > 100 µM | > 100 µM | 70.1 µM | > 100 µM |  |  |  |  |  |  |  |  |  | 
Cc1ccc(C)c2c1C1CCCCC3(OCCCO3)C21O (stereo not given) | > 100 µM | > 100 µM | > 100 µM | > 100 µM |  | > 100 µM | > 100 µM | > 100 µM |  | > 100 µM |  |  |  |  |  |  |  |  |  | 
Cc1ccc(S(=O)(=O)OC[C@@]2(C)CC[C@]3(C)CC[C@]4(C)C(=C3C2)C=C[C@@H]2[C@@]3(C)CCCNC(C)(C)[C@@H]3CC[C@]24C)cc1 | 3.36 µM | 3.13 µM |  |  | 3.29 µM |  | 3.29 µM | 4.63 µM | 4.26 µM |  |  |  | 1.7 µM |  | 1.78 µM | 1.7 µM | 1.71 µM |  | 2.12 µM | 1.94 µM
Cc1sc(/N=C/C2=C(O)CC(C)(C)CC2=O)nc1-c1ccccc1 | > 100 µM |  | > 100 µM | > 100 µM | > 100 µM | > 100 µM | > 100 µM | > 100 µM | > 100 µM | > 100 µM |  |  |  |  |  |  |  |  |  | 
Clc1cc(N/N=C(\c2ccccc2)c2ccccn2)ncn1 |  |  | 4.2 µM | > 100 µM | > 100 µM | > 100 µM | > 100 µM | 1.92 µM | > 100 µM | > 100 µM |  |  |  |  |  |  |  |  |  | 
COC(=O)/C=C(C)/C=C\COC1CCCCO1 (stereo not given) | > 100 µM | > 100 µM | > 100 µM |  | > 100 µM | > 100 µM | > 100 µM | > 100 µM | > 100 µM | > 100 µM |  |  |  |  |  |  |  |  |  | 
O=C1NC(N2CCCC(CO)C2)=N/C1=C\c1cccs1 (stereo not given) | > 100 µM |  | > 100 µM | > 100 µM | > 100 µM | > 100 µM | > 100 µM | > 100 µM | > 100 µM | > 100 µM |  |  |  |  |  |  |  |  |  | 
CCOC(=O)[C@@]12C[C@](/C=C/OC)(O[Si](C)(C)C)[C@@]13c1cc(OC)c(OC)cc1CCN3C(=O)C2=O |  | > 100 µM | > 100 µM | > 100 µM | > 100 µM | > 100 µM | > 100 µM | > 100 µM | > 100 µM | > 100 µM |  |  |  |  |  |  |  |  |  | 
O=C(/C=C/c1ccc(-c2ccccc2)cc1)NCc1ccc(C(=O)NCCc2ccccc2)cc1 | > 100 µM | > 100 µM | > 100 µM | > 100 µM | > 100 µM | > 100 µM | > 100 µM | > 100 µM |  | > 100 µM |  |  |  |  |  |  |  |  |  | 
O=C1Cc2cc3ccccc3nc2-c2ccccc2N1 | > 100 µM | > 100 µM | > 100 µM | > 100 µM | > 100 µM | > 100 µM | > 100 µM |  | > 100 µM | > 100 µM |  |  |  |  |  |  |  |  |  | 
NC(CCC(=O)c1ccccn1)C(=O)O (stereo not given) | > 100 µM | > 100 µM | > 100 µM | > 100 µM | > 100 µM |  | > 100 µM | > 100 µM | > 100 µM | > 100 µM |  |  |  |  |  |  |  |  |  | 
S=C(NCc1ccccn1)N/N=C/c1ccccn1 | 0.0713 µM |  | 1.5 µM | > 100 µM | 2.44 µM | < 0.0108 µM | > 96 µM | < 0.01 µM | 70.1 µM | > 100 µM |  |  |  |  |  |  |  |  |  | 
CC(=O)N[C@@H](Cc1ccc(O)cn1)C(=O)NCc1ccc(Cl)cc1 | > 100 µM | > 100 µM | > 100 µM | > 100 µM | > 100 µM | > 100 µM | > 100 µM | > 100 µM |  | > 100 µM |  |  |  |  |  |  |  |  |  | 
OC12CCC3(OC4CCCCO4)c4ccccc4C3C1c1ccccc12 (stereo not given) | > 100 µM |  | > 100 µM | > 100 µM | > 100 µM | > 100 µM | > 100 µM | > 100 µM |  |  |  |  |  |  |  |  |  |  |  | 
